Like-named read-outs stand apart in the source and are kept apart here.

A short description of data set [1]: solubility of fisetin in water and in ethanol. Format: physicochemical. The protocol:
In one embodiment of the invention, a fisetin composition comprises fisetin and a second component that is selected from a group that comprises ethanol. The group may further comprise water. In one example, the solubility of fisetin in water is substantially 0.05 mg/mL or more, such as 0.1 mg/mL or more, 0.15 mg/mL or more, or 0.2 mg/mL. In another example, the solubility of fisetin in ethanol is substantially 2 mg/mL or more, such as 4 mg/mL or more, 6 mg/mL or more, 8 mg/mL or more, or 10 mg/mL or more.

The test system of the next data set is joint pain in a person. As to the kind of experiment: joint pain relief in a person after oral fisetin. Format: in vivo, human. The conditions noted are these: for reported joint pain: ingested 5 consecutive days. The protocol:
In still another embodiment of the invention, the fisetin composition is used to relieve joint pain in a person. A person ingested fisetin (500 mg) in capsule powder form for 5 consecutive days, fisetin (500 mg) mixed in 35 mL of MCT oil for 5 consecutive days, or fisetin (500 mg) mixed in 40 mL of 40% ethanol and 60% water for 5 consecutive days, each test separated by a month. Reported joint pain decreased only after consuming fisetin in 40% ethanol and 60% water, but not the other regimens.

The subject of the next data set is blood glucose level. As to the kind of experiment: blood glucose level in a person after oral fisetin. Format: in vivo, human. As to the method:
In still another example of the embodiment, fisetin can be used to decrease blood glucose level. Fisetin (500 mg) was ingested by a person after mixing with 75 mL of 53% ethanol and 47% water for 3 consecutive days.

The subject of the next data set is skin of 20 people. The data set can be described thus: topical skin treatment. The format is in vivo, human. The conditions noted are these: 200 mM fisetin in polyethylene glycol containing titanium nanoparticles; applied to the skin of 20 people for 2 days. The protocol:
In yet another example of the invention, fisetin can be used as a topical skin treatment. Fisetin was dissolved in polyethylene glycol containing titanium nanoparticles with a resulting fisetin concentration of 200 mM. Fisetin was applied to the skin of 20 people for 2 days.

Setting [2] is: 500 mg for 5 consecutive days, regimen not specified, stated after the 40% ethanol and 60% water result.
[3] abbreviates: 500 mg in 75 mL of 53% ethanol and 47% water, 3 consecutive days.

In the case of `O=c1c(O)c(-c2ccc(O)c(O)c2)oc2cc(O)ccc12` [fisetin], the solubility in data set [1] (in water, read-out: solubility of fisetin in water) was not below 50 µg/mL; in data set [1] (organic solvent or mixture, in ethanol, read-out: solubility of fisetin in ethanol), not below 2000 µg/mL. The energy result with joint pain in a person (setting [2]) and with blood glucose level (setting [3]) was “slight increase” each time. The metabolism result in the data set with joint pain in a person (setting [2]) and in the data set with blood glucose level (setting [3]) was “slight increase” each time. Also, the weight decrease result with joint pain in a person (500 mg for 5 consecutive days, to a BMI 23.7) is reported as “approximately 1 kg”; in the data set on blood glucose level (500 mg in 75 mL of 53% ethanol and 47% water, 3 consecutive days, to a BMI 22.1) it was “approx. 1 kg”. The reported joint pain entry is “not” in the data set with joint pain in a person (500 mg in capsule powder form); “not” in the data set with joint pain in a person (500 mg mixed in 35 mL of MCT oil); “decreased” with joint pain in a person (500 mg mixed in 40 mL of 40% ethanol and 60% water). Also, the “waking blood glucose level after the administration” value in the data set with blood glucose level (500 mg mixed with 75 mL of 53% ethanol and 47% water, 3 consecutive days, decreased from 5.7 mmol/L) is listed as 4.8 mmol/L. In the data set with blood glucose level (in a month afterwards without increased exercise), the muscle gain entry is listed as “slight muscle gain”. The “skin appearance reported by subjects” value in the data set with skin of 20 people was “improved skin appearance”.

As usually defined, the solubility is the concentration that dissolves in the medium under given conditions.
